Test results published in the NIST ThermoML archive (doi:10.1021/je049652j).
Numbers after ± are expanded uncertainties.

Assay: molar heat capacity at constant pressure
Details: 101.33 kPa, Liquid

| Structure (SMILES) | molar heat capacity at constant pressure (284.15 K) [J/K/mol] | molar heat capacity at constant pressure (286.65 K) [J/K/mol] | molar heat capacity at constant pressure (289.15 K) [J/K/mol] | molar heat capacity at constant pressure (291.65 K) [J/K/mol] | molar heat capacity at constant pressure (294.15 K) [J/K/mol] | molar heat capacity at constant pressure (296.65 K) [J/K/mol] | molar heat capacity at constant pressure (299.15 K) [J/K/mol] | molar heat capacity at constant pressure (301.65 K) [J/K/mol] | molar heat capacity at constant pressure (304.15 K) [J/K/mol] | molar heat capacity at constant pressure (306.65 K) [J/K/mol] | molar heat capacity at constant pressure (309.15 K) [J/K/mol] | molar heat capacity at constant pressure (311.65 K) [J/K/mol] | molar heat capacity at constant pressure (314.15 K) [J/K/mol] | molar heat capacity at constant pressure (316.65 K) [J/K/mol] | molar heat capacity at constant pressure (319.15 K) [J/K/mol] | molar heat capacity at constant pressure (321.65 K) [J/K/mol] | molar heat capacity at constant pressure (324.15 K) [J/K/mol] | molar heat capacity at constant pressure (326.65 K) [J/K/mol] | molar heat capacity at constant pressure (329.15 K) [J/K/mol] | molar heat capacity at constant pressure (331.65 K) [J/K/mol] | other results |
| --- | --- | --- | --- | --- | --- | --- | --- | --- | --- | --- | --- | --- | --- | --- | --- | --- | --- | --- | --- | --- | --- |
| CCCCBr [1-bromobutane] | 159.45 ± 0.8 | 159.98 ± 0.8 | 160.53 ± 0.8 | 161.01 ± 0.81 | 161.52 ± 0.81 | 162.08 ± 0.81 | 162.6 ± 0.81 | 163.08 ± 0.82 | 163.72 ± 0.82 | 164.22 ± 0.82 | 164.78 ± 0.82 | 165.34 ± 0.83 | 165.94 ± 0.83 | 166.49 ± 0.83 | 167.09 ± 0.84 | 167.67 ± 0.84 | 168.29 ± 0.84 | 168.83 ± 0.84 | 169.45 ± 0.85 | 170.09 ± 0.85 | molar heat capacity at constant pressure (334.15 K): 170.63 ± 0.85 J/K/mol; molar heat capacity at constant pressure (336.65 K): 171 ± 0.86 J/K/mol; molar heat capacity at constant pressure (339.15 K): 171.94 ± 0.86 J/K/mol; molar heat capacity at constant pressure (341.65 K): 172.57 ± 0.86 J/K/mol; molar heat capacity at constant pressure (344.15 K): 173.26 ± 0.87 J/K/mol; molar heat capacity at constant pressure (346.65 K): 173.89 ± 0.87 J/K/mol; molar heat capacity at constant pressure (349.15 K): 174.51 ± 0.87 J/K/mol; molar heat capacity at constant pressure (351.65 K): 175.19 ± 0.88 J/K/mol; molar heat capacity at constant pressure (353.15 K): 175.47 ± 0.88 J/K/mol |
| CCCCCCCCCCBr [1-bromodecane] | 332.6 ± 1.7 | 333.65 ± 1.7 | 335 ± 1.7 | 336.08 ± 1.7 | 336.9 ± 1.7 | 338.2 ± 1.7 | 339.29 ± 1.7 | 340.37 ± 1.7 | 341.48 ± 1.7 | 342.74 ± 1.7 | 343.89 ± 1.7 | 345.13 ± 1.7 | 346.34 ± 1.7 | 347.51 ± 1.7 | 348.84 ± 1.7 | 350.1 ± 1.8 | 351.41 ± 1.8 | 352.71 ± 1.8 | 354.02 ± 1.8 | 355.32 ± 1.8 | molar heat capacity at constant pressure (334.15 K): 356.14 ± 1.8 J/K/mol; molar heat capacity at constant pressure (336.65 K): 357.34 ± 1.8 J/K/mol; molar heat capacity at constant pressure (339.15 K): 359.3 ± 1.8 J/K/mol; molar heat capacity at constant pressure (341.65 K): 360.7 ± 1.8 J/K/mol; molar heat capacity at constant pressure (344.15 K): 362.13 ± 1.8 J/K/mol; molar heat capacity at constant pressure (346.65 K): 363.37 ± 1.8 J/K/mol; molar heat capacity at constant pressure (349.15 K): 364.86 ± 1.8 J/K/mol; molar heat capacity at constant pressure (351.65 K): 366.38 ± 1.8 J/K/mol; molar heat capacity at constant pressure (353.15 K): 367.07 ± 1.8 J/K/mol |
| CCCCCCCBr [1-bromoheptane] | 244.73 ± 1.2 | 245.56 ± 1.2 | 246.44 ± 1.2 | 247.28 ± 1.2 | 248.12 ± 1.2 | 248.93 ± 1.2 | 249.7 ± 1.2 | 250.38 ± 1.2 | 251.56 ± 1.3 | 252.33 ± 1.3 | 253.19 ± 1.3 | 254.14 ± 1.3 | 255 ± 1.3 | 255.97 ± 1.3 | 256.84 ± 1.3 | 257.85 ± 1.3 | 258.76 ± 1.3 | 259.71 ± 1.3 | 260.68 ± 1.3 | 261.61 ± 1.3 | molar heat capacity at constant pressure (334.15 K): 262.5 ± 1.3 J/K/mol; molar heat capacity at constant pressure (336.65 K): 262.97 ± 1.3 J/K/mol; molar heat capacity at constant pressure (339.15 K): 264.64 ± 1.3 J/K/mol; molar heat capacity at constant pressure (341.65 K): 265.49 ± 1.3 J/K/mol; molar heat capacity at constant pressure (344.15 K): 266.52 ± 1.3 J/K/mol; molar heat capacity at constant pressure (346.65 K): 267.46 ± 1.3 J/K/mol; molar heat capacity at constant pressure (349.15 K): 268.47 ± 1.3 J/K/mol; molar heat capacity at constant pressure (351.65 K): 269.51 ± 1.4 J/K/mol; molar heat capacity at constant pressure (353.15 K): 270.03 ± 1.4 J/K/mol |
| CCCCCCBr [1-bromohexane] | 215.54 ± 1.1 | 216.29 ± 1.1 | 217.08 ± 1.1 | 217.78 ± 1.1 | 218.54 ± 1.1 | 219.26 ± 1.1 | 219.99 ± 1.1 | 220.68 ± 1.1 | 221.38 ± 1.1 | 222.22 ± 1.1 | 222.98 ± 1.1 | 223.79 ± 1.1 | 224.63 ± 1.1 | 225.37 ± 1.1 | 226.2 ± 1.1 | 227.01 ± 1.1 | 227.86 ± 1.1 | 228.67 ± 1.1 | 229.55 ± 1.1 | 230.39 ± 1.1 | molar heat capacity at constant pressure (334.15 K): 231.21 ± 1.2 J/K/mol; molar heat capacity at constant pressure (336.65 K): 231.59 ± 1.2 J/K/mol; molar heat capacity at constant pressure (339.15 K): 233.25 ± 1.2 J/K/mol; molar heat capacity at constant pressure (341.65 K): 233.77 ± 1.2 J/K/mol; molar heat capacity at constant pressure (344.15 K): 234.73 ± 1.2 J/K/mol; molar heat capacity at constant pressure (346.65 K): 235.64 ± 1.2 J/K/mol; molar heat capacity at constant pressure (349.15 K): 236.55 ± 1.2 J/K/mol; molar heat capacity at constant pressure (351.65 K): 237.39 ± 1.2 J/K/mol; molar heat capacity at constant pressure (353.15 K): 237.85 ± 1.2 J/K/mol |
